Assay results: ChEMBL document CHEMBL4359900 (Eur J Med Chem, 2019)
The source made the active and inactive calls. The calls are words filed in the database; no cut-off is given here.

Legend:
[1] = target: T1, 5-hydroxytryptamine receptor 2A (Homo sapiens, UniProt P28223); assay: Agonist activity at recombinant human 5HT2A receptor expressed in Flp-In-293 cells assessed as increase in calcium influx up to 10 uM measured for 300 secs by Fluo-4 dye based FLIPR assay; type: cell-based; conditions: flp-in-293, 5 min
T1 sequence (P28223 whole entry, canonical isoform): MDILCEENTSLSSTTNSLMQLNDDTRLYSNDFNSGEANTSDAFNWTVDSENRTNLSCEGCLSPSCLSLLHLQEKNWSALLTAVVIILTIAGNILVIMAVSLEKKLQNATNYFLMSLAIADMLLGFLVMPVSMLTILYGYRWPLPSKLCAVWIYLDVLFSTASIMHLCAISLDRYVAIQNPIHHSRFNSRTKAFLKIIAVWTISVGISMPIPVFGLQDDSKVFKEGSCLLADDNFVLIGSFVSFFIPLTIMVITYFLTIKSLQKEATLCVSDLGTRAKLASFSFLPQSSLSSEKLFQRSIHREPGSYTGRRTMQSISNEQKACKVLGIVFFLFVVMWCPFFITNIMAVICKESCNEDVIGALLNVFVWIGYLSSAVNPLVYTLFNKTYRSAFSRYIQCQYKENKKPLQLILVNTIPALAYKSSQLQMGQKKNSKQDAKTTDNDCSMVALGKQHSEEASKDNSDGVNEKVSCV

[2] = target: T2, 5-hydroxytryptamine receptor 2C (Homo sapiens) (UniProt P28335); assay: Agonist activity at recombinant human unedited 5HT2C receptor isoform INI expressed in Flp-In-293 cells assessed as increase in calcium influx measured for 300 secs by Fluo-4 dye based FLIPR assay relative to control; type: functional, cell-based
T2 sequence (whole entry): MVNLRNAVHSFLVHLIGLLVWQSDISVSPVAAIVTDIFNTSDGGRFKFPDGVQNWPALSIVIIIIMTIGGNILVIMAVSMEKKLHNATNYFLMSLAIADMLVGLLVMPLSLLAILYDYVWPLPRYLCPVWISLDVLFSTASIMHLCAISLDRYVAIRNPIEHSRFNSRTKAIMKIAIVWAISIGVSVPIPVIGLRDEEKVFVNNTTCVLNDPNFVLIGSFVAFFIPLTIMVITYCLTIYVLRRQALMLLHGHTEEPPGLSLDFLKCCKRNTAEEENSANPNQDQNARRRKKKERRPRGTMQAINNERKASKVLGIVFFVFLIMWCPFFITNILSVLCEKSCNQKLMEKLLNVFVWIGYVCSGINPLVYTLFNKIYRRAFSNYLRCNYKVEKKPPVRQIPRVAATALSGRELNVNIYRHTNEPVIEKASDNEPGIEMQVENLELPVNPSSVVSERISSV

[3] = target: T3, 5-hydroxytryptamine receptor 2C (Homo sapiens, UniProt P28335); assay: (§1) Agonist activity at recombinant human unedited 5HT2C receptor isoform INI expressed in Flp-In-293 cells assessed as increase in calcium influx measured for 300 secs by Fluo-4 dye based FLIPR assay; type: functional, cell-based
T3 sequence (P28335 whole entry): T2 sequence (whole entry)

[4] = target: T4, 5-hydroxytryptamine receptor 2B (Homo sapiens, UniProt P41595); assay: Agonist activity at recombinant human 5HT2B receptor expressed in Flp-In-293 cells assessed as increase in calcium influx up to 10 uM measured for 300 secs by Fluo-4 dye based FLIPR assay; type: cell-based; conditions: flp-in-293, 5 min
T4 sequence (P41595 whole entry): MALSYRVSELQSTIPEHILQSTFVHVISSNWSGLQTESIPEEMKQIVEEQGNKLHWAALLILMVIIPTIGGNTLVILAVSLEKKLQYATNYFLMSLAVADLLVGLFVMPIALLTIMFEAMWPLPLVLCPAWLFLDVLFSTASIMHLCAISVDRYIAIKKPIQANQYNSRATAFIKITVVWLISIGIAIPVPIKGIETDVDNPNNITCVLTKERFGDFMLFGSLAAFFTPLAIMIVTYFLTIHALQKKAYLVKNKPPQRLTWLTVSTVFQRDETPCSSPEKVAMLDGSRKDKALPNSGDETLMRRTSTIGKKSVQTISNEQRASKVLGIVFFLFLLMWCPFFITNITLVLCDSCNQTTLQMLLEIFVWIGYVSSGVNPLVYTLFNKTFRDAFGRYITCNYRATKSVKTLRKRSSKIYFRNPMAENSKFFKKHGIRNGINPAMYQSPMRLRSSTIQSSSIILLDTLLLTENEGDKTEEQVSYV

[5] = target: T4, 5-hydroxytryptamine receptor 2B; assay: Agonist activity at recombinant human 5HT2B receptor expressed in Flp-In-293 cells assessed as increase in calcium influx measured for 300 secs by Fluo-4 dye based FLIPR assay; type: cell-based
5-HT2A receptor = 5-HT2A receptor (Homo sapiens, UniProt P28223); assay: (§2) Agonist activity at recombinant human 5HT2A receptor expressed in Flp-In-293 cells assessed as increase in calcium influx measured for 300 secs by Fluo-4 dye based FLIPR assay relative to control; type: cell-based; conditions: Flp-In-293 cells expressing recombinant human 5HT2A receptor
Sequence of 5-HT2A receptor (P28223 whole entry): as the sequence (P28223 whole entry, canonical isoform) above

5-HT2B receptor = 5-HT2B receptor (Homo sapiens, UniProt P41595); assay: Agonist activity at recombinant human 5HT2B receptor expressed in Flp-In-293 cells assessed as increase in calcium influx measured for 300 secs by Fluo-4 dye based FLIPR assay relative to control; type: cell-based; conditions: Flp-In-293 cells expressing recombinant human 5HT2B receptor
Sequence of 5-HT2B receptor (P41595 whole entry): as the sequence (P41595 whole entry) above

[6] = target: T1, 5-hydroxytryptamine receptor 2A; assay: Agonist activity at recombinant human 5HT2A receptor expressed in Flp-In-293 cells assessed as increase in calcium influx measured for 300 secs by Fluo-4 dye based FLIPR assay; type: cell-based
[7] = target: T2, 5-hydroxytryptamine receptor 2C (Homo sapiens); assay: Agonist activity at recombinant human unedited 5HT2C receptor isoform INI expressed in Flp-In-293 cells assessed as increase in calcium influx up to 10 uM measured for 300 secs by Fluo-4 dye based FLIPR assay; type: functional, cell-based
[8] = target: T2, 5-hydroxytryptamine receptor 2C (Homo sapiens); assay: as §1; type: functional, cell-based
[9] = target: Serotonin 2 receptors; 5-HT2a & 5-HT2c (Homo sapiens) (UniProt P28223+P28335); assay: Selectivity ratio of EC50 for recombinant human 5HT2A receptor expressed in Flp-In-293 cells to EC50 for recombinant human unedited 5HT2C receptor isoform INI expressed in Flp-In-293 cells; type: cell-based
Sequence of Serotonin 2 receptors; 5-HT2a & 5-HT2c (Homo sapiens) (P28223 whole entry, looked up, one chain of several, canonical isoform): as the sequence (P28223 whole entry, canonical isoform) above

[10] = target: T1, 5-hydroxytryptamine receptor 2A; assay: as §2; type: cell-based; conditions: flp-in-293, 5 min
Homo sapiens = species on record: Homo sapiens; assay: Selectivity ratio of EC50 for recombinant human 5HT2B receptor expressed in Flp-In-293 cells to EC50 for recombinant human unedited 5HT2C receptor isoform INI expressed in Flp-In-293 cells; type: cell-based

Row | Structure (SMILES) | Activity [1] | Emax [2] [%] | EC50 [3] [nM] | Activity [4] | EC50 ([5]; read-out: EC50) [nM] | Emax at 5 min (5-HT2A receptor) [%] | Emax at 5 min (5-HT2B receptor) [%] | EC50 [6] [nM] | Activity [7] | pEC50 [8] | Ratio EC50 [9] | Emax [10] [%] | Ratio EC50 (Homo sapiens) | EC50 ([5]; read-out: pEC50 (converted)) [nM]
1 | Cl.NC[C@@H]1C[C@@]1(F)c1cccc(Cl)c1 | Not Active | 92 | 1060 | Not Active | – | – | – | – | – | – | – | – | – | –
2 | COc1ccccc1CNC[C@H]1C[C@]1(F)c1ccccc1 | – | 85 | 789 | – | 363 | 83 | 27 | 320 | – | – | – | – | – | –
3 | Cl.NC[C@@H]1C[C@@]1(F)c1ccccc1Br | Not Active | – | – | Not Active | – | – | – | – | inactive | inactive | – | – | – | –
4 | Cc1cccc([C@@]2(F)C[C@@H]2CN)c1.Cl | – | 96 | 8 | Not Active | – | 71 | – | 162 | – | – | 20 | – | – | –
5 | NCCc1c[nH]c2ccc(O)cc12 [SEROTONIN] | – | – | – | – | – | – | – | – | – | – | – | 100 | – | –
6 | NCC1C(c2ccccc2)C1(F)F (racemic) | – | 82 | 4430 | – | 2350 | 43 | 62 | 3680 | – | – | – | – | – | –
7 | Cl.NC[C@H]1C[C@]1(F)c1ccccc1Br | – | 71 | 312 | Not Active | – | 38 | – | 122 | – | – | – | – | – | –
8 | Cc1cccc([C@]2(F)C[C@H]2CN)c1.Cl | Not Active | 97 | 5250 | Not Active | – | – | – | – | – | – | – | – | – | –
9 | COc1ccccc1CNCC1CC1(F)c1cc(F)ccc1OC (racemic) | – | 103 | 229 | – | 285 | 92 | 61 | 31 | – | – | – | – | – | –
10 | NC[C@@H]1C[C@@]1(F)c1ccccc1 | – | 87 | 4110 | – | 903 | 47 | 77 | 1830 | – | – | – | – | – | –
11 | NC[C@H]1C[C@]1(F)c1ccccc1 | – | 98 | 4.7 | – | 10 | 106 | 104 | 10 | – | – | – | – | 2 | –
12 | NC[C@H]1C[C@]1(F)c1cccc(Cl)c1 | – | 110 | 12 | – | 22 | 102 | 91 | 23 | – | – | – | – | – | –
13 | Cl.NC[C@@H]1C[C@@]1(F)c1cccc(F)c1 | Not Active | – | – | Not Active | – | – | – | – | inactive | inactive | – | – | – | –
14 | CNC[C@H]1C[C@]1(F)c1ccccc1 | – | 96 | 291 | – | 565 | 40 | 42 | 156 | – | – | – | – | – | –
15 | COc1ccc(F)cc1C1(F)CC1CN (racemic) | – | 90 | 598 | – | 116 | 86 | 79 | 352 | – | – | – | – | – | –
16 | NC[C@H]1C[C@]1(F)c1cccc(F)c1 | – | 107 | 3 | – | 2 | 83 | 106 | 3 | – | – | – | – | – | 2.29
